Assay results taken from US7402606B2, “Derivatives of 1-(oxoaminoacetyl) pentylcarbamate as cathepsin K inhibitors for the treatment of bone loss” (SmithKline Beecham Corporation, priority 2002, dated 2008).
Like-named read-outs stand apart in the source and are kept apart here.

What was measured:
human cathepsin K = target: T1, human cathepsin K (Homo sapiens, UniProt P43235); assay: Cathepsin K inhibition assay, human recombinant enzyme, fluorogenic substrate Cbz-Phe-Arg-AMC; format: biochemical; conditions: read-out: h Cat K IC50
T1 construct: The proform of cathepsin K was converted to mature cathepsin K by brief exposure to pH 4; made in house; host or cells: baculovirus; Trichoplusia ni High Five cells (virus raised in Sf-9)
T1 sequence (P43235 115-329): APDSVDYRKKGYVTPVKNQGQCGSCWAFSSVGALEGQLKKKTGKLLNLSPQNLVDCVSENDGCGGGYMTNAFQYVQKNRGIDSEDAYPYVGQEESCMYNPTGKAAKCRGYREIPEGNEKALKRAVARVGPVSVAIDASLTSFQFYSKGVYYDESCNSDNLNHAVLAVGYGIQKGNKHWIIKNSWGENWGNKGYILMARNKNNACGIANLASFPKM
In short: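 Recombinant human cathepsin K (baculovirus/insect-cell proform, activated at pH 4 with 5 mM L-cysteine) assayed with 10 μM Cbz-Phe-Arg-AMC, 10% DMSO, 30 °C.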

human cathepsin S = human cathepsin S (Homo sapiens, UniProt P25774); assay: Cathepsin S inhibition assay, human recombinant enzyme, Cbz-Val-Val-Arg-AMC; format: biochemical; conditions: Table 2, human cathepsin S; read-out: h Cat S IC50
human cathepsin S, sequence (P25774 115-331): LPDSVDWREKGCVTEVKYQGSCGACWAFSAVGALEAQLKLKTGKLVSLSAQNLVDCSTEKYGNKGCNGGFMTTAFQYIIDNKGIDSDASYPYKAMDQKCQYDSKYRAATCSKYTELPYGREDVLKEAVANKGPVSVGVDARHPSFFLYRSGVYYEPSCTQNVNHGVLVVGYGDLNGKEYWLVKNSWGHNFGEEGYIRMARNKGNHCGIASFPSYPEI
Method: All assays for cathepsin K were carried out with human and rat recombinant enzyme. Assays for cathepsins S ? V were also carried out with human recombinant enzyme. Assays for human cathepsins B, H, and L were carried out with enzyme, purchased from Athens Research and Technology, Inc., prepared from human liver tissue. Standard assay conditions for the determination of kinetic constants used a fluorogenic peptide substrate, typically (5S,8S)-13-amino-5-benzyl-13-imino-3-methylene-N-(4-methyl-2-oxo-2H-chromen-7-yl)-6-oxo-1-phenyl-2-oxa-4,7,12triazatridecane-8-carboxamide (Cbz-Phe-Arg-AMC), and were determined in 100 mM sodium acetate at pH 5.5 containing 10 mM dithiothreitol and 120 mM sodium chloride. […]
All assays contained 10% dimethyl sulfoxide. […] Product fluorescence (excitation at 360 nm; emission at 440 nm, (except cathepsin H which used excitation at 340 nm; emission at 420 nm)) was monitored with a PerSeptive Biosystems Cytofluor II fluorescence plate reader. […]
Potential inhibitors were evaluated using the progress curve method. […] For those compounds whose progress curves were linear, the enzymatic activity (RATE) was plotted against the concentration of test compound, including inhibitor concentration of zero ([I]=0), and the IC50 determined from a fit of equation 1 to the data, RATE=Vmax/(1+([I]/IC50)) (1) where Vmax is the best fit estimate of the maximal enzymatic activity. […]

Structure (SMILES) | IC50 (human cathepsin K; Table 1, human cathepsin K) [nM] | IC50 (human cathepsin K; Table 2, human cathepsin K) [nM] | IC50 (human cathepsin S) [nM]
CCCC[C@H](NC(=O)O[C@@H]1CN(C(=O)Nc2ccc(C(F)(F)F)cc2)CC1(C)C)C(=O)C(=O)Nc1ccn[nH]1 [Example 71, (3S)-4,4-dimethyl-1-{[4-(trifluoromethyl)anilino]carbonyl}pyrrolidinyl (1S)-1-[oxo(1H-pyrazol-5-ylamino)acetyl]pentylcarbamate] | 0.1 to 1 | 0.1 to 1 | 1 to 10
CCCC[C@H](NC(=O)O[C@@H]1CN(c2nnc(C(F)(F)F)s2)CC1(C)C)C(=O)C(=O)Nc1ccn[nH]1 [Example 82, (3S)-4,4-Dimethyl-1-[5-(trifluoromethyl)-1,3,4-thiadiazol-2-yl]pyrrolidinyl-(1S)-1-[oxo(1H-pyrazol-5-ylamino)acetyl]pentylcarbamate] | 0.1 to 1 | 0.1 to 1 | 10 to 100
